# Experimental data published in ChEMBL document CHEMBL1122817, “Synthesis and biological activity of substituted [[3(S)-(acylamino)-2-oxo-1-azetidinyl]oxy]acetic acids. A new class of heteroatom-activated beta-lactam antibiotics” (1985).
# Columns and labels:
# Escherichia coli [1] = experiment: Inhibitory activity against Escherichia coli X580 at 10 mg/mL concentration using Agar disk plate assay; assay type: functional
# Bacillus subtilis [2] = experiment: Inhibitory activity against Bacillus Subtilis X12M at 10 mg/mL concentration using Agar disk plate assay; assay type: functional
# Micrococcus luteus = experiment: Inhibitory activity against Sarcina lutea X186 at 10 mg/mL concentration using Agar disk plate assay; assay type: functional
# Serratia marcescens [3] = experiment: Inhibitory activity against Serratia marcescens X99 at 10 mg/mL concentration using Agar disk plate assay; assay type: functional
# Bacillus subtilis [4] = experiment: Inhibitory activity against Bacillus Subtilis X12 at 10 mg/mL concentration using Agar disk plate assay; assay type: functional
# Proteus vulgaris [5] = experiment: Inhibitory activity against Proteus vulgaris X45 at 10 mg/mL concentration using Agar disk plate assay; assay type: functional
# [6] = system: Salmonella enterica subsp. enterica serovar Gallinarum; experiment: Inhibitory activity against Salmonella gallinarum X142 at 10 mg/mL concentration using Agar disk plate assay; assay type: functional
# Escherichia coli [7] = experiment: Inhibitory activity against Escherichia coli X161 at 10 mg/mL concentration using Agar disk plate assay; assay type: functional
# Escherichia coli [8] = experiment: Inhibitory activity against Escherichia coli X161M at 10 mg/mL concentration using Agar disk plate assay; assay type: functional
# Staphylococcus aureus [9] = experiment: Inhibitory activity against Staphylococcus aureus X1 at 10 mg/mL concentration using Agar disk plate assay; assay type: functional
# Streptococcus pneumoniae = experiment: Minimum inhibitory concentration against Streptococcus pneumoniae Park I; assay type: functional
# Streptococcus pyogenes = experiment: Minimum inhibitory concentration against Streptococcus pyogenes C203; assay type: functional
# Klebsiella pneumoniae [10] = experiment: Minimum inhibitory concentration against Klebsiella pneumoniae X26; assay type: functional
# Pseudomonas aeruginosa [11] = experiment: Inhibitory activity against Pseudomonas aeruginosa X48 at 10 mg/mL concentration using Agar disk plate assay; assay type: functional
# Proteus inconstans = experiment: Minimum inhibitory concentration against Proteus inconstans PR33; assay type: functional; settings: Providencia alcalifaciens
# Klebsiella pneumoniae [12] = experiment: Minimum inhibitory concentration against Klebsiella pneumoniae KAE; assay type: functional
# Citrobacter freundii = experiment: Minimum inhibitory concentration against Citrobacter freundii CF17; assay type: functional
# Haemophilus influenzae [13] = experiment: Minimum inhibitory concentration against Haemophilus influenza C.L; assay type: functional
# [14] = system: Acinetobacter calcoaceticus; experiment: Minimum inhibitory concentration against Acinetobacter calcoaceticus AC12; assay type: functional
# Klebsiella aerogenes [15] = experiment: Minimum inhibitory concentration against Enterobacter aerogenes EB 17; assay type: functional
# Ralstonia solanacearum = experiment: Inhibitory activity against Pseudomonas solanacearum X185 at 10 mg/mL concentration using Agar disk plate assay; assay type: functional
# Escherichia coli [16] = experiment: Minimum inhibitory concentration against Escherichia coli TEM; assay type: functional
# Serratia marcescens [17] = experiment: Minimum inhibitory concentration against Serratia marcescens X99; assay type: functional
# Enterobacter cloacae [18] = experiment: Minimum inhibitory concentration against Enterobacter cloacae EB5; assay type: functional
# Salmonella typhi [19] = experiment: Minimum inhibitory concentration against Salmonella typhi X514; assay type: functional, Salmonella enterica subsp. enterica serovar Typhi; settings: Salmonella enterica
# Enterobacter cloacae [20] = experiment: Minimum inhibitory concentration against Enterobacter cloacae 265A; assay type: functional
# Klebsiella aerogenes [21] = experiment: Minimum inhibitory concentration against Enterobacter aerogenes C32; assay type: functional
# Salmonella typhi [22] = experiment: Minimum inhibitory concentration against Salmonella typhi 1335; assay type: functional, Salmonella enterica subsp. enterica serovar Typhi; settings: Salmonella enterica
# Klebsiella pneumoniae [23] = experiment: Minimum inhibitory concentration against Klebsiella pneumoniae X68; assay type: functional
# Pseudomonas aeruginosa [24] = experiment: Minimum inhibitory concentration against Pseudomonas aeruginosa (4 strains); assay type: functional
# Escherichia coli [25] = experiment: Minimum inhibitory concentration against Escherichia coli N10; assay type: functional
# Staphylococcus aureus [26] = experiment: Minimum inhibitory concentration against Staphylococcus aureus (4 strains); assay type: functional
# Haemophilus influenzae [27] = experiment: Minimum inhibitory concentration against Haemophilus influenza 76; assay type: functional
# [28] = system: Geobacillus stearothermophilus; experiment: Inhibitory activity against Bacillus Stearothermophilus C451 at 10 mg/mL concentration using Agar disk plate assay; assay type: functional
# Escherichia coli [29] = experiment: Minimum inhibitory concentration against Escherichia coli EC14; assay type: functional
# Providencia rettgeri = experiment: Minimum inhibitory concentration against Proteus rettgeri C24; assay type: functional
# Serratia marcescens [30] = experiment: Minimum inhibitory concentration against Serratia marcescens SE3; assay type: functional
# Streptococcus = experiment: Minimum inhibitory concentration against Streptococcus sp. Group D (2 strains); assay type: functional
# [31] = system: Staphylococcus epidermidis; experiment: Minimum inhibitory concentration against Staphylococcus epidermidis (2 strains); assay type: functional
# Morganella morganii = experiment: Minimum inhibitory concentration against Proteus morganii PR15; assay type: functional
# Escherichia coli [32] = experiment: Inhibitory activity against Escherichia coli X161M at 1 mg/mL concentration using Agar disk plate assay; assay type: functional
# [33] = system: Salmonella enterica subsp. enterica serovar Gallinarum; experiment: Inhibitory activity against Salmonella gallinarum X142 at 1 mg/mL concentration using Agar disk plate assay; assay type: functional
# Serratia marcescens [34] = experiment: Inhibitory activity against Serratia marcescens X99 at 1 mg/mL concentration using Agar disk plate assay; assay type: functional
# Escherichia coli [35] = experiment: Inhibitory activity against Escherichia coli X580 at 1 mg/mL concentration using Agar disk plate assay; assay type: functional
# Escherichia coli [36] = experiment: Inhibitory activity against Escherichia coli X161 at 1 mg/mL concentration using Agar disk plate assay; assay type: functional
# Proteus vulgaris [37] = experiment: Inhibitory activity against Proteus vulgaris X45 at 1 mg/mL concentration using Agar disk plate assay; assay type: functional
smiles,measurement,setting,value
C[C@H]1[C@H](NC(=O)Cc2csc(N)n2)C(=O)N1OCC(=O)[O-].[K+],Zone of inhibition,Escherichia coli [1],36 mm
same,Zone of inhibition,Bacillus subtilis [2],21 mm
same,Zone of inhibition,Micrococcus luteus,15 mm
same,Zone of inhibition,Serratia marcescens [3],23 mm
same,Zone of inhibition,Bacillus subtilis [4],12 mm
same,Zone of inhibition,Proteus vulgaris [5],19 mm
same,Zone of inhibition,[6],22 mm
same,Zone of inhibition,Escherichia coli [7],24 mm
same,Zone of inhibition,Escherichia coli [8],25 mm
same,Zone of inhibition,Staphylococcus aureus [9],18 mm
CO/N=C(\C(=O)N[C@@H]1C(=O)N(OCC(=O)[O-])[C@H]1C)c1csc(N)n1.[K+],MIC,Streptococcus pneumoniae,32 µg/mL
same,MIC,Streptococcus pyogenes,16 µg/mL
same,Zone of inhibition,Escherichia coli [1],56 mm
same,MIC,Klebsiella pneumoniae [10],0.25 µg/mL
same,Zone of inhibition,Pseudomonas aeruginosa [11],15 mm
same,MIC,Proteus inconstans,0.125 µg/mL
same,MIC,Klebsiella pneumoniae [12],32 µg/mL
same,MIC,Citrobacter freundii,2 µg/mL
same,MIC,Haemophilus influenzae [13],1 µg/mL
same,MIC,[14],> 64 µg/mL
same,Zone of inhibition,Bacillus subtilis [2],19 mm
same,MIC,Klebsiella aerogenes [15],0.25 µg/mL
same,Zone of inhibition,Ralstonia solanacearum,20 mm
same,MIC,Escherichia coli [16],0.5 µg/mL
same,MIC,Serratia marcescens [17],0.5 µg/mL
same,Zone of inhibition,Micrococcus luteus,22 mm
same,MIC,Enterobacter cloacae [18],1 µg/mL
same,MIC,Salmonella typhi [19],0.125 µg/mL
same,MIC,Enterobacter cloacae [20],> 64 µg/mL
same,MIC,Klebsiella aerogenes [21],0.25 µg/mL
same,MIC,Salmonella typhi [22],0.25 µg/mL
same,MIC,Klebsiella pneumoniae [23],0.25 µg/mL
same,Zone of inhibition,Serratia marcescens [3],33 mm
same,MIC,Pseudomonas aeruginosa [24],> 64 µg/mL
same,MIC,Escherichia coli [25],0.25 µg/mL
same,Zone of inhibition,Bacillus subtilis [4],13 mm
same,MIC,Staphylococcus aureus [26],> 64 µg/mL
same,Zone of inhibition,Proteus vulgaris [5],36 mm
same,MIC,Haemophilus influenzae [27],1 µg/mL
same,Zone of inhibition,[6],30 mm
same,Zone of inhibition,[28],24 mm
same,Zone of inhibition,Escherichia coli [7],35 mm
same,MIC,Escherichia coli [29],0.25 µg/mL
same,Zone of inhibition,Escherichia coli [8],44 mm
same,MIC,Providencia rettgeri,0.125 µg/mL
same,MIC,Serratia marcescens [30],1 µg/mL
same,MIC,Streptococcus,> 64 µg/mL
same,MIC,[31],> 64 µg/mL
same,Zone of inhibition,Staphylococcus aureus [9],19 mm
same,MIC,Morganella morganii,2 µg/mL
O=C(O)CON1C[C@H](NC(=O)Cc2ccccc2)C1=O,Zone of inhibition,Escherichia coli [1],11 mm
same,Zone of inhibition,Bacillus subtilis [2],20 mm
same,Zone of inhibition,Micrococcus luteus,23 mm
same,Zone of inhibition,Bacillus subtilis [4],16 mm
same,Zone of inhibition,Proteus vulgaris [5],10 mm
same,Zone of inhibition,Staphylococcus aureus [9],23 mm
CO/N=C(/C(=O)N[C@@H]1C(=O)N(O[C@H](OC(C)=O)C(=O)[O-])[C@H]1C)c1csc(N)n1.[K+],Zone of inhibition,Escherichia coli [32],28 mm
same,Zone of inhibition,[33],17 mm
same,Zone of inhibition,Serratia marcescens [34],18 mm
same,Zone of inhibition,Escherichia coli [35],38 mm
same,Zone of inhibition,Escherichia coli [36],26 mm
same,Zone of inhibition,Proteus vulgaris [37],25 mm
